Reference: patent publication EP1285920A1, “C10 Ester sustituted taxanes as antitumor agents” (Florida State University Research Foundation, Inc., priority 2001, dated 2003)
Marks after values point to notes of the source that are not given here.

Assays:
HCT116 = assay: In Vitro cytotoxicity measured by the cell colony formation assay; assay type: cell-based, human; conditions: Homo sapiens, HCT-116; read-out: IN VITRO ID 50 HCT116
Outline: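 Four hundred cells per dish in McCoy's 5a medium with 10% FBS were allowed to attach for 5 h at 37 °C. They were then exposed to compound for 72 h at 37 °C, added as a 10× stock made fresh in medium. After HBSS rinsing and refeeding, colonies were counted after 7 days.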

[1] = system: MX-1 human breast carcinoma; assay type: in vivo; conditions: for complete tumor regressions: six mice per group (0611: five evaluable), ended Day 63; for Toxic Deaths / Complete Response / Partial Response / Stable Disease: number of mice, mg/kg: 0499 80, 0550 73, 0611 113, 0748 200, 6 mice/group; for Complete Response / Partial Response / Stable Disease: Day 63; for % Reduction (Weight): po, 432 h
Procedure: (§1) Antitumor compounds were administered orally in a study to investigate whether such a formulation is efficacious against the MX-1 human breast carcinoma xenograft. Antitumor compound 0499 was formulated as Solution 1 in Example 6. Antitumor compound 0550 was formulated as Solution 2 in Example 6. Antitumor compound 0611 was formulated as Solution 3 in Example 6. Antitumor compound 0748 was formulated as Solution 4 in Example 6. Other antitumor compounds were formulated similarly. The compounds were prepared in a vehicle of 90% saline, 5% Cremophor, and 5% ethanol.
(§2) Female nu/nu mice (11-12 weeks of age; implanted subcutaneously with 1 mm^3 MX-1 human breast carcinoma fragments in the flank) were sorted into one control group (n=10) and four treatment (n=6) groups (group mean tumor size of 47-49 mg). The study was terminated on Day 63.

blood cell populations = assay: Effect of oral treatment on blood cell populations and body weight in the MX-1 study (Example 22); assay type: in vivo, nu/nu mice; set-up: neutrophil reduction: concentration or dose not given beside the values; conditions: for % Reduction (Monocytes) / % Reduction (Neutrophils): Day 4, vs vehicle; for % Reduction (Monocytes) / % Reduction (Neutrophils) / Monocytes (K/µL) / Neutrophils (K/µL) / Maximum Weight Loss (Day): mg/kg: 0499 80, 0550 73, 0611 113, 0748 200; for Monocytes (K/µL) / Neutrophils (K/µL): Day 4; for Monocytes (K/µL) / Neutrophils (K/µL) / Maximum Weight Loss (Day): single oral bolus Day 1; for Maximum Weight Loss (Day): body weight, day of maximum in parentheses in the cell
Procedure: as §1, §2
In addition to survival and tumor regression responses, the effect of treatment on blood cell populations was assessed. The major effect of these antitumor compounds on blood cell populations was a marked reduction in the neutrophil cell number. As well, monocyte depletion correlated fairly well with neutrophil reduction for each antitumor compound. […] There was a correlation between antitumor activity and reduced neutrophil count. In general, toxicity (as determined by neutrophil depletion) and weight loss correlated with efficacy. […] Importantly, the toxicities observed with the very efficacious antitumor compounds were manageable and reversible; neutrophil count and body weight rebounded from their low points in just a few days. Table 20 summarizes the weight reduction, neutrophil and monocyte measurements on Day 4, with tumor weight reduction calculated at Day 18: Table 20

HCT116 carcinoma = conditions: number of 5 mice; i.v. qd x 1 at MTD, Day 60; mg/kg: Taxol 36 (split doses), 0503 72.6, 0536 49, 0663 159, 0670 123, 0687 159, 0706 108, 0908 159, 0947 76.9, 0951 72.6, 0983 72.6, 0999 49, 1003 49, 1011 108
Outline: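 Mice bearing HCT116 tumours received a single i.v. maximum tolerated dose per compound, formulated in 5% ethanol, 5% Cremophor, 90% isotonic saline. Study ended on Day 60; complete response meant no palpable tumour at study end.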

MX-1 carcinoma = conditions: number of 6 mice; i.v. qd x 1 at MTD, Day 60; mg/kg: Taxol 36 (split dose), 0503 72.6, 0536 49, 0663 159, 0670 123, 0687 159, 0706 108, 0908 159, 0947 76.9, 0951 72.6, 0983 67.4, 0999 49, 1003 49, 1011 108
Outline: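 Mice dosed with a single i.v. bolus (qd x 1) at each compound's MTD, formulated in 5% ethanol, 5% Cremophor, 90% isotonic saline. Study ended Day 60; complete response = tumor not palpable at study end.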

A2780 ovarian carcinoma = conditions: number of mice; i.v. qd x 1 at estimated MTD (Taxol 24 mg/kg, Taxotere 70 mg/kg, 0983 72.6 mg/kg); 5 mice/group (Taxotere 6)
Procedure: Dosing was initiated on Day 1. […] Taxotere was given i.v. on a qd x 1 schedule at a dose of 70 mg/kg. […] The study was terminated on Day 60. Treatment groups are detailed in Table 7.

SKMES lung carcinoma = assay: In vivo evaluation of oral administration against SKMES human lung carcinoma xenograft (Example 21); conditions: number of mice, single oral bolus Day 1, mg/kg: Taxol 40, 0687 228, 0503 73, 6 mice/group
Procedure: Female Nu/Nu mice (6-8 weeks of age; implanted with 1 mm^3 SKMES lung carcinoma fragments in the flank) were sorted into treatment groups of six mice each. […] Treatments were administered as a single oral bolus on Day 1, and the study was terminated on Day 60.
A complete response is obtained if the tumor is not palpable at the end of the study.
The total response rate is defined as the percentage of evaluable animals (excluding deaths due to procedure or toxicity) in a group that experience complete or partial responses at the termination of the study.

Row | SMILES | IC50 (HCT116) | complete tumor regressions ([1]; MX-1, single oral bolus Day 1) | Toxic Deaths ([1]; single oral bolus Day 1) | Complete Response ([1]; single oral bolus Day 1) | Partial Response ([1]; single oral bolus Day 1) | Stable Disease ([1]; single oral bolus Day 1) | % Reduction (Weight) [1] | % Reduction (Monocytes) (blood cell populations; single oral bolus) | % Reduction (Neutrophils) (blood cell populations; single oral bolus) | Monocytes (K/µL) (blood cell populations) | Neutrophils (K/µL) (blood cell populations) | Maximum Weight Loss (Day) (blood cell populations) | further results
1 | CCC(=O)O[C@H]1C(=O)[C@@]2(C)[C@H]([C@H](OC(=O)c3ccccc3)[C@]3(O)C[C@H](OC(=O)[C@H](O)[C@@H](NC(=O)OC(C)(C)C)c4cccs4)C(C)=C1C3(C)C)[C@]1(OC(C)=O)CO[C@@H]1C[C@@H]2O [Compound 0550] | < 10 nM | six | 0 | 6 | 0 | 0 | 100.0% | 80.2% | 95.9% | 0.019 K/µL | 0.037 K/µL | -16.1% (5) | neutrophil reduction (blood cell populations; MX-1 study, single oral bolus, day 4): 95.9%; body weight loss (blood cell populations; MX-1 study, single oral bolus, day 5): 16.1%
2 | CCC(=O)O[C@H]1C(=O)[C@@]2(C)[C@H]([C@H](OC(=O)c3ccccc3)[C@]3(O)C[C@H](OC(=O)[C@H](O)[C@@H](NC(=O)c4ccccc4)c4cccs4)C(C)=C1C3(C)C)[C@]1(OC(C)=O)CO[C@@H]1C[C@@H]2O [Compound 0687] |  |  |  |  |  |  |  |  |  |  |  |  | Toxic Deaths (HCT116 carcinoma): 0; Toxic Deaths (MX-1 carcinoma): 1; Toxic Deaths (A2780 ovarian carcinoma): 0; Toxic Deaths (SKMES lung carcinoma): 1^a; Complete Response (SKMES lung carcinoma; Day 60): 4; Partial Response (SKMES lung carcinoma; Day 60): 1; Stable Disease (SKMES lung carcinoma; Day 60): 0
3 | CCC(=O)O[C@H]1C(=O)[C@@]2(C)[C@H]([C@H](OC(=O)c3ccccc3)[C@]3(O)C[C@H](OC(=O)[C@H](O)[C@@H](NC(=O)OC(C)(C)C)c4ccccc4)C(C)=C1C3(C)C)[C@]1(OC(C)=O)CO[C@@H]1C[C@@H]2O [Compound 0611] | < 10 nM | four | 1^a | 4 | 0 | 0 | 100.0% | 56.3% | 93.7% | 0.042 K/µL | 0.057 K/µL | -15.0% (5) | 
4 | CCC(=O)O[C@H]1C(=O)[C@@]2(C)[C@H]([C@H](OC(=O)c3ccccc3)[C@]3(O)C[C@H](OC(=O)[C@H](O)[C@@H](NC(=O)c4ccccc4)c4ccccc4)C(C)=C1C3(C)C)[C@]1(OC(C)=O)CO[C@@H]1C[C@@H]2O [Compound 0748] | < 10 nM |  | 0 | 0 | 0 | 1 | 69.1% |  | 70.5% | 0.117 K/µL | 0.269 K/µL | -4.6% (5) | antitumor activity ([1]; MX-1, single oral bolus Day 1): significant survival extensions compared to vehicle control mice
